The compounds below were run against T1, b-Raf (Homo sapiens, UniProt P15056, V600E) (assay: Raf cellular assay (phospho-Mek1/2 ELISA in A2058 cells)). Conditions: Table 3; human melanoma A2058 cells (b-Raf mutation), Mek1/2 Ser217/221 phosphorylation, 1 hour incubation; read-out: pMEK IC50.
T1 construct: endogenous in cells; host or cells: A2058 human melanoma cells
Format: cell-based
Protocol: Compounds of the present invention were evaluated for potency against b-Raf using a cellular assay as follows. The activity of Raf kinases in cells is determined by measuring the level of phosphorylation of Mek1/2 at serine 217/221, the site phosphorylated by Raf kinases in vivo. Mek1/2 Ser phosphorylation is measured using anti-phospho-Mek1/2 antibodies (Cell Signaling #9121) in an ELISA format.
Healthy growing human melanoma A2058 cells (harboring a b-Raf mutation) are used for the assay. A2058 cells are grown in 10% FBS DMEM medium. When the cells are near 85%+confluence, the cells are rinsed with PBS once and trypsinized with trypsin/EDTA for 3 minutes. The cells are resuspended in 10% FBS DMEM and are centrifuged down at 1000 rpm for 5 minutes. The cells are resuspended in 10% FBS DMEM and counted on a cell counter. The cells are seeded at 50,000 cells/well in a volume of 100 μL/well in 10% FBS DMEM in a 96 well flat-bottom plate. The negative control wells receive only 100 μL of 10% FBS DMEM medium without cells. The plate is incubated overnight in a cell culture incubator with 5% CO2 at 37° C.
On day 2, testing compounds are prepared in 10% FBS DMEM medium and serially diluted at 1:3 for 11 test concentrations. Each concentration of the compounds is tested in duplicate. The compound solutions are added at 25 μL/well to the corresponding wells in the cell plate, and 25 μL/well of the vehicle (0.5% DMSO in 10% FBS DMEM) is added to the negative control wells (no cells) and the positive control wells (cells without compounds). The plate is incubated for 1 hour in a cell culture incubator with 5% CO2 at 37° C. After 1 hour of incubation, the medium is removed, 100 μL/well of cell lysis buffer is added into the cell plate, and the plate is shaken for 15 minutes at room temperature. After 15 minutes, the cell lysates are transferred to an ELISA plate (pre-coated with anti-Mek1 anti-body, Cell Signaling #2352), and the plate is incubated with gentle shaking for 2 hours at room temperature. After 2 hours, the contents of the wells are aspirated and the wells are washed 4 times with wash buffer. 100 μL of phospho-Mek1/2 detection antibody (Cell Signaling #9121) is added into each well and the plate is incubated with gentle shaking for 1 hour at room temperature. After 1 hour, the wells are aspirated and washed 4 times with wash buffer. 100 μL of anti-rabbit IgG HRP-linked antibody (Cell Signaling #7074) is added to each well, and the plate is incubated with gentle shaking for 1 hour at room temperature. After 1 hour, the contents of the wells are aspirated and the wells are washed 4 times with wash buffer. 100 μL of TMB substrate solution (Sigma #T0440) is added into each well, and the plate is incubated with gentle shaking at room temperature for 10 to 20 minutes. After color development, 100 μL of stop solution (1N hydrochloric acid) is added to each well to terminate color development. The plate is read at 450 nm on an ELISA plate reader.

T1 sequence (P15056 whole entry V600E): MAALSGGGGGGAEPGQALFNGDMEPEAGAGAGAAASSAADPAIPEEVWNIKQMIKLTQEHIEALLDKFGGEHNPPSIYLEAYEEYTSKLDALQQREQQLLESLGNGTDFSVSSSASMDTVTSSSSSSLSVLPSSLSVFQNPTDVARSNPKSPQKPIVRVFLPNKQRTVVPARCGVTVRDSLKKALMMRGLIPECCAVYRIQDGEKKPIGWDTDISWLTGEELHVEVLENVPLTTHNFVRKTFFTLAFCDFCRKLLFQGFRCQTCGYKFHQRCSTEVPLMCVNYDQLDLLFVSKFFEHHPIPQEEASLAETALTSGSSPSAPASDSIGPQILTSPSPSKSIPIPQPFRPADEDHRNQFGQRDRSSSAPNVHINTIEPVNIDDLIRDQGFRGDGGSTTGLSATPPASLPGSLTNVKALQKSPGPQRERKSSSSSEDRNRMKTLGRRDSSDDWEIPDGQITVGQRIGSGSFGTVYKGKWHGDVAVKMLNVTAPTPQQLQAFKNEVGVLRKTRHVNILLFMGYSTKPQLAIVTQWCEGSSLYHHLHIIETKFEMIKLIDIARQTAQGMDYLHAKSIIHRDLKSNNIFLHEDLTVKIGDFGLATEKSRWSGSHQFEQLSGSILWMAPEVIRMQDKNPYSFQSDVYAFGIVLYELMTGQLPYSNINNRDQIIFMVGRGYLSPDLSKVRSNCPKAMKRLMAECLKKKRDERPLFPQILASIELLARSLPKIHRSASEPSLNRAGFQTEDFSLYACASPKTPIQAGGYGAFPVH

Row | IC50 | Structure (SMILES)
1 | 2.98 nM | COc1cc(-c2nn(C3CCOCC3)cc2-c2ccnc(NCCC#N)n2)cnc1N [Example B-69, 3-({4-[3-(6-amino-5-methoxypyridin-3-yl)-1-(tetrahydro-2H-pyran-4-yl)-1H-pyrazol-4-yl]pyrimidin-2-yl}amino)propanenitrile]
2 | 2.33 nM | COc1cc(-c2nn(C3CCOCC3)cc2-c2ccnc(NCC(F)F)n2)cnc1N [Example B-70, 4-[3-(6-amino-5-methoxypyridin-3-yl)-1-(tetrahydro-2H-pyran-4-yl)-1H-pyrazol-4-yl]-N-(2,2-difluoroethyl)-pyrimidin-2-amine]
3 | 2.8 nM | Cc1n[nH]c2ncc(-c3nn(C(C)(C)C)cc3-c3ccnc(NCCC#N)n3)cc12 [Example B-71, 3-({4-[1-tert-butyl-3-(3-methyl-1H-pyrazolo[3,4-b]pyridin-5-yl)-1H-pyrazol-4-yl]pyrimidin-2-yl}amino)propanenitrile]
4 | 8.15 nM | CC(C)(C)n1cc(-c2ccnc(NCCC#N)n2)c(-c2cnc3c(c2)CCN3)n1 [Example B-72, 3-({4-[1-tert-butyl-3-(2,3-dihydro-1H-pyrrolo[2,3-b]pyridin-5-yl)-1H-pyrazol-4-yl]pyrimidin-2-yl}amino)propanenitrile]
5 | 63.5 nM | COc1cncc(-c2nn([C@@H]3CCOC3)cc2-c2ccnc(NCCC#N)n2)c1 [Example B-73, 3-[(4-{3-(5-methoxypyridin-3-yl)-1-[(3R)-tetrahydrofuran-3-yl]-1H-pyrazol-4-yl}pyrimidin-2-yl)amino]propanenitrile]
6 | 5.33 nM | CC(C)(C)n1cc(-c2ccnc(NCCC#N)n2)c(-c2cnc3[nH]ccc3c2)n1 [Example B-74, 3-({4-[1-tert-butyl-3-(1H-pyrrolo[2,3-b]pyridin-5-yl)-1H-pyrazol-4-yl]pyrimidin-2-yl}amino)-propanenitrile]
7 | 23.8 nM | N#CCCNc1nccc(-c2cn([C@@H]3CCOC3)nc2-c2cnc3[nH]ccc3c2)n1 [Example B-75, 3-[(4-{3-(1H-pyrrolo[2,3-b]pyridin-5-yl)-1-[(3R)-tetrahydrofuran-3-yl]-1H-pyrazol-4-yl}pyrimidin-2-yl)amino]propanenitrile]
8 | 12 nM | C[C@H](O)CNc1nccc(-c2cn(C3CCOCC3)nc2-c2cnc3[nH]cc(Cl)c3c2)n1 [Example B-76, (2S)-1-({4-[3-(3-chloro-1H-pyrrolo[2,3-b]pyridin-5-yl)-1-(tetrahydro-2H-pyran-4-yl)-1H-pyrazol-4-yl]pyrimidin-2-yl}amino)propan-2-ol]
9 | 30.4 nM | FC(F)CNc1nccc(-c2cn(C3CCNCC3)nc2-c2cnc3[nH]cc(Cl)c3c2)n1 [Example B-77, 4-[3-(3-chloro-1H-pyrrolo[2,3-b]pyridin-5-yl)-1-piperidin-4-yl-1H-pyrazol-4-yl]-N-(2,2-difluoroethyl)pyrimidin-2-amine]
10 | 8.8 nM | CC(=O)c1cc(-c2nn(CC(F)F)cc2-c2ccnc(NCCC#N)n2)cnc1N [Example B-78, 3-(4-(3-(5-acetyl-6-aminopyridin-3-yl)-1-(2,2-difluoroethyl)-1H-pyrazol-4-yl)pyrimidin-2-ylamino)propanenitrile]
11 | 95.3 nM | COc1cc(-c2nn(-c3ccc(C#N)cc3)cc2-c2ccnc(NCCO)n2)cnc1N [Example B-80, 4-[3-(6-amino-5-methoxypyridin-3-yl)-4-{2-[(2-hydroxyethyl)-amino]pyrimidin-4-yl}-1H-pyrazol-1-yl]-benzonitrile]
12 | 71.5 nM | COc1ccc(Nc2nccc(-c3cn(CC(F)F)nc3-c3cnc4[nH]ccc4c3)n2)cn1 [Example B-81, 4-[1-(2,2-difluoroethyl)-3-(1H-pyrrolo[2,3-b]pyridin-5-yl)-1H-pyrazol-4-yl]-N-(6-methoxypyridin-3-yl)pyrimidin-2-amine]
13 | 0.627 nM | COc1cc(-c2nn(CC(F)F)cc2-c2ccnc(NCCC#N)n2)cnc1N [Example B-82, 3-(4-(3-(6-amino-5-methoxypyridin-3-yl)-1-(2,2-difluoroethyl)-1H-pyrazol-4-yl)pyrimidin-2-ylamino)propanenitrile]

Source: US7772246B2 (Pfizer Inc., priority 2007, dated 2010)
